Assay type in all cases: in vivo
For one data set, the system named is male Wister rats. Put plainly: Submerged restraint stress ulcer test. Particulars: Rattus norvegicus, oral, once, 30 mg/5 ml/kg body weight in 0.5% CMC, 1 h before 6 h water immersion restraint stress, read-out: Ulceration inhibitory ratio (%). The method, then: A test compound as shown in Table 1 was suspended in 0.5% carboxymethylcellulose (CMC) and orally administered once to male Wister rats aged 11 weeks, which had been fasted for 18 hours, at a dose of 30 mg/5 ml/kg body weight. Similarly, 5 ml of 0.5% CMC was administered to a control group. One hour after the administration of the test compound, the rats were kept in restraining gages and immersed in water at 20 to 22°C up to the chest. Then, these animals were allowed to stand as such for six hours so as to load a stress. After pulling up from the water, each animal was sacrificed by vertebral cervical dislocation and the stomach was taken out. 5 ml of a 5% aqueous solution of formaldehyde was injected into the stomach and the stomach was immersed in said solution for 30 minutes for fixation. The specimen thus fixed was cut along the curvatura ventriculi major and the major axis of the formed ulcer was measured with a slide calipers (mm). The sum of the major axes of the total ulcers was made an ulcer index.
The ulceration inhibitory ratio was calculated according to the following equation: [formula]

Data set [1] concerns male Donryu rats. Put plainly: Aspirin-induced ulcer test. Particulars: oral, 30 mg/5 ml/kg body weight, 1 h before Aspirin 300 mg/5 ml/kg oral, sacrificed after four hours. The method, then:
A test compound suspended in 0.5% carboxymethylcellulose orally administered to male Donryu rats, which had been fasted for 24 hours, at a dose of 30 mg/5 ml/kg body weight. Similarly, 5 ml of 0.5% CMC was administered to a control group. One hour after the administration of the test compound, Aspirin suspended in 0.5% CMC was orally administered to the rats at a dose of 300 mg/5 ml/kg body weight. After four hours, each animal was sacrificed and the stomach was taken out and treated with an aqueous solution of formaldehyde to determine the ulceration inhibitory ratio in the same manner as in the submerged restrain stress ulcer test.

The test system of data set [2] is male Donryu rats. The data set can be described thus: Histamine-induced ulcer test. Particulars: oral, once, 30 mg/5 ml/kg, 1 h before histamine dihydrochloride 200 mg/5 ml/kg i.p., sacrificed after five hours. The method, then:
A compound obtained in Example 2 was suspended in 0.5% CMC and orally administered once to male Donryu rats, which had been fasted for 24 hours, at a dose of 30 mg/5 ml/kg. Similarly, 5 ml of 0.5% CMC was administered to a control group. One hour after the administration of the test compound, a solution of histamine dihydrochloride in a physiological saline solution was intraperitoneally administered to the rats at a dose of 200 mg/5 ml/kg. After five hours, each animal was sacrificed and the stomach was taken out and treated with an aqueous solution of formaldehyde to determine the ulceration inhibitory ratio in the same manner as in the above-described submerged restrain stress ulcer test. As a result, the ulceration inhibitory ratio was 50%.

Data set [3] has as its system male Donryu rats. Put plainly: Ethanol-induced ulcer test. Particulars: oral, 50 mg/5 ml/kg body weight, 1 h before 100% ethanol 5 ml/kg oral, sacrificed after one hour. The method, then: A compound obtained in Example 2 was suspended in 0.5% CMC and orally administered to male Donryu rats, which had been fasted for 48 hours and abstained from water for 24 hours, at a dose of […]. Similarly, 5 ml of 0.5% CMC was administered to a control group. One hour after the administration of the test compound, 100% ethanol was orally administered to the rats at a dose of 5 ml/kg body weight. After one hour, each animal was sacrificed and the stomach was taken out and treated in the above-mentioned manner. Then, erosion formation in the stomach was observed.
As a result, in a control group to which 0.5% CMC was given alone, erosion was formed at a frequency of almost 100%. In contrast thereto, in a test group to which the test compound was administered at a dose of 50 mg/5 ml/kg body weight, erosion formation was inhibited at a frequency of almost 100%. 5. Acute toxicity

The subject of another data set is male ICR mice. The data set can be described thus: Acute toxicity. Particulars: oral, once, 1,000 mg/10 ml/kg body weight in 0.5% CMC; three male ICR mice; observed for seven days. The source says:
A compound prepared in Example 2 was suspended in 0.5% CMC to give a predetermined concentration. Then, three male ICR mice aged 5 weeks were forced to orally take the above suspension once.

Marks after values point to notes of the source that are not given here.

For the compound `CCOCC[S+]([O-])c1nc2ccccc2s1` (stereo not shown) [Example 4, 2-[(2-Ethoxyethyl)sulfinyl]benzothiazole], the inhibition in vivo at 30 mg/kg in the data set on male Wister rats is 59.9%. Consider `CCOCCS(=O)(=O)c1nc2cc(Cl)ccc2s1` [Example 3, 5-Chloro-2-[(2-ethoxyethyl)sulfonyl]benzothiazole], for which the inhibition in vivo at 30 mg/kg in the data set on male Wister rats was found to be 35.3%.

For `COc1ccc2[nH]c([S+]([O-])Cc3ncc(C)c(OC)c3C)nc2c1` (stereo not shown) [omeprazole, reference compound], the inhibition in vivo at 30 mg/kg in the data set with male Wister rats was found to be 99%. For the compound `CCOCC[S+]([O-])c1nc2ccccc2[nH]1` (stereo not shown) [Example 17, 2-[(2-Ethoxyethyl)sulfinyl]benzimidazole], the inhibition in vivo at 30 mg/kg in the data set on male Wister rats was found to be 73.6%. Regarding `CCOCCSc1nc2cc(Cl)ccc2s1` [Example 1, 5-Chloro-2-[(2-ethoxyethyl)thio]benzothiazole], the inhibition in vivo at 30 mg/kg in the data set on male Wister rats came out at 57%. In addition, in the data set with male Donryu rats [1], the “Ulceration inhibitory ratio (%)” value came to 21.3%. Consider `CCOCC[S+]([O-])c1nc2cc(Cl)ccc2s1` (stereo not shown) [Example 2, 5-Chloro-2-[(2-ethoxyethyl)sulfinyl]benzothiazole], for which the inhibition in vivo at 30 mg/kg in the data set on male Wister rats is 93%. Besides, in the data set with male Donryu rats [2], the ulceration inhibitory ratio is listed as 50%. In addition, in the data set with male Donryu rats [1], the “Ulceration inhibitory ratio (%)” value is 85* %. For the same compound, the “erosion formation was inhibited at a frequency of” value in the data set with male Donryu rats [3] is listed as roughly 100%. Besides, the “acute toxicity (death of animals)” value with male ICR mice is given as “no animal died”. `[O-][S+](CCOCCOCCO)c1nc2cc(Cl)ccc2s1` (stereo not shown) [Example 11, 5-Chloro-2-[{2-(2-hydroxyethoxy)ethoxy}ethylsulfinyl]benzothiazole]: the inhibition in vivo at 30 mg/kg in the data set on male Wister rats stood at 63.5%. Take `[O-][S+](CCO)c1nc2cc(Cl)ccc2s1` (stereo not shown) [Example 9, 5-Chloro-2-[(2-hydroxyethyl)sulfinyl]benzothiazole]: the inhibition in vivo at 30 mg/kg in the data set with male Wister rats is 58.5%.

(Values after EP0370436A2, “Novel benzothiazole and benzimidazole derivatives and antiulcer agent containing the same” (MEIJI SEIKA KAISHA LTD., priority 1988, dated 1990).)
